# Columns and labels:
# [1] = Clearance in rat at 2 mg/kg, iv or 10 mg/kg, po; format: ADME, organism-based; conditions: in vivo
# [2] = system: Human immunodeficiency virus 1; assay: Antiviral activity against HIV-1 infected in human MT4 cells assessed as inhibition of viral infection measured after 72 hrs; format: functional; conditions: Human immunodeficiency virus 1, MT4, 72 h
# [3] = Oral bioavailability in rat at 10 mg/kg; format: ADME, organism-based; conditions: in vivo
# Protease = Protease (Human immunodeficiency virus 1, UniProt Q9YQ12); assay: Inhibition of wild-type HIV1 protease expressed in Escherichia coli assessed as reduction in product formation preincubated for 30 mins followed by addition of Val-Ser-Gln-Asn-(beta-naphtyl)Ala-Pro-Ile-Val as substrate measured after 1 hr
# [4] = Clearance in rat at 1 mg/kg, iv or 5 mg/kg, po; format: ADME, organism-based; conditions: in vivo
# [5] = Oral bioavailability in rat at 5 mg/kg; format: ADME, organism-based; conditions: in vivo
# [6] = system: Human immunodeficiency virus; assay: Inhibition of HIV protease at 1 uM
# Sequence of Protease (Q9YQ12 whole entry): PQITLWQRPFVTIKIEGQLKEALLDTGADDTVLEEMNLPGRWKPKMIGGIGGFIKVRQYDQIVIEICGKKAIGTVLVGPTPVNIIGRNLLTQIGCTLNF
Compound,clearance [1],bioavailability [3],IC50 (Protease),clearance [4],bioavailability [5],inhibition [6],IC95 [2]
COC(=O)N[C@H](C(=O)Nc1ccccc1CC[C@@H]1CN[C@H](COC(=O)NC(C)C)CO1)C(c1ccccc1)c1ccccc1,–,–,37 nM,60 mL/min/kg,33%,–,190 nM
N[C@H](C(=O)Nc1cccc(F)c1CC[C@@H]1CN[C@H](COC(=O)NCC(F)(F)F)CO1)[C@@H](c1ccc(F)cc1)c1cccc(F)c1,45 mL/min/kg,30%,6.4 nM,–,–,–,75 nM
COC(=O)N[C@H](C(=O)Nc1ccccc1CC[C@@H]1CN[C@H](COC(N)=O)CO1)C(c1ccccc1)c1ccccc1,–,–,20 nM,30 mL/min/kg,16%,–,120 nM
COC(=O)N[C@H](C(=O)Nc1ccccc1CC[C@@H]1CN[C@H](COC(=O)NCc2ccccc2F)CO1)C(c1ccccc1)c1ccccc1,–,–,3.6 nM,61 mL/min/kg,–,–,180 nM
COC(=O)N[C@H](C(=O)Nc1ccccc1CC[C@@H]1CN[C@H](COC(=O)NCc2ccccc2)CO1)C(c1ccccc1)c1ccccc1,–,–,6.1 nM,27 mL/min/kg,< 5%,–,200 nM
COC(=O)N[C@H](C(=O)Nc1ccccc1CC[C@@H]1CN[C@H](COC(=O)NCc2ccc(F)cc2)CO1)C(c1ccccc1)c1ccccc1,–,–,4.1 nM,49 mL/min/kg,47%,–,170 nM
COC(=O)N[C@H](C(=O)Nc1ccccc1CC[C@@H]1CN[C@H](COC(=O)NCC(F)(F)F)CO1)C(c1ccccc1)c1ccccc1,–,–,27 nM,36 mL/min/kg,19%,–,120 nM
COC(=O)N[C@H](C(=O)Nc1cnccc1CC[C@@H]1CN[C@H](COC(=O)NCC(F)(F)F)CO1)C(c1ccccc1)c1ccccc1,–,–,14 nM,81 mL/min/kg,< 5%,–,330 nM
COC(=O)N[C@H](C(=O)Nc1cccc(F)c1CC[C@@H]1CN[C@H](COC(=O)NCC(F)(F)F)CO1)C(c1ccccc1)c1ccccc1,–,–,12 nM,36 mL/min/kg,37%,–,95 nM
N[C@H](C(=O)Nc1cncc(F)c1CC[C@@H]1CN[C@H](COC(=O)NCC(F)(F)F)CO1)C(c1ccccc1)c1ccccc1,13 mL/min/kg,59%,9.9 nM,–,–,–,150 nM
N[C@H](C(=O)Nc1cccc(F)c1CC[C@@H]1CN[C@H](COC(=O)NCC(F)(F)F)CO1)[C@@H](c1ccc(F)cc1)c1cc(F)cc(F)c1,22 mL/min/kg,14%,8.2 nM,–,–,–,61 nM
COC(=O)N[C@H](C(=O)Nc1ccccc1CC[C@@H]1CN[C@H](COC(=O)N[C@@H]2CCc3ccccc32)CO1)C(c1ccccc1)c1ccccc1,–,–,9.7 nM,110 mL/min/kg,< 5%,–,370 nM
COC(=O)N[C@H](C(=O)NCCCC1CNCCO1)C(c1ccccc1)c1ccccc1 (stereo partly drawn),–,–,–,–,–,11%,–

# More lines, main results first:
clearance [1],bioavailability [3],IC50 (Protease),clearance [4],bioavailability [5],inhibition [6],Compound,IC95 [2]
11 mL/min/kg,25%,0.8 nM,–,–,–,N[C@H](C(=O)Nc1cncc(F)c1CC[C@@H]1CN[C@H](COC(=O)NCC(F)(F)F)CO1)[C@@H](c1ccc(Cl)cc1)c1cc(F)cc(F)c1,49 nM
16 mL/min/kg,37%,2.4 nM,–,–,–,N[C@H](C(=O)Nc1cncc(F)c1CC[C@@H]1CN[C@H](COC(=O)NCC(F)(F)F)CO1)[C@@H](c1ccc(F)cc1)c1cccc(F)c1,66 nM
–,–,3.4 nM,45 mL/min/kg,17%,–,COC(=O)N[C@H](C(=O)Nc1ccccc1CC[C@@H]1CN[C@H](COC(=O)NCc2cccc(Cl)n2)CO1)C(c1ccccc1)c1ccccc1,150 nM
–,–,0.04 nM,–,–,–,COC(=O)N[C@H](C(=O)N[C@@H](Cc1ccccc1)[C@@H](O)CN(Cc1ccc(-c2ccccn2)cc1)NC(=O)[C@@H](NC(=O)OC)C(C)(C)C)C(C)(C)C [ATAZANAVIR],17 nM
–,–,3.5 nM,11 mL/min/kg,15%,–,COC(=O)N[C@H](C(=O)Nc1cncc(F)c1CC[C@@H]1CN[C@H](COC(=O)NCC(F)(F)F)CO1)C(c1ccccc1)c1ccccc1,94 nM
–,–,2.4 nM,33 mL/min/kg,13%,–,COC(=O)N[C@H](C(=O)Nc1ccccc1CC[C@@H]1CN[C@H](COC(=O)NCc2ccc(Cl)s2)CO1)C(c1ccccc1)c1ccccc1,170 nM
–,–,3.1 nM,–,–,–,N[C@H](C(=O)Nc1cccc(F)c1CC[C@@H]1CN[C@H](COC(=O)NCC(F)(F)F)CO1)C(c1ccccc1)c1ccccc1,230 nM
–,–,3.5 nM,87 mL/min/kg,< 5%,–,COC(=O)N[C@H](C(=O)Nc1ccccc1CC[C@@H]1CN[C@H](COC(=O)N[C@H]2CCc3ccccc32)CO1)C(c1ccccc1)c1ccccc1,63 nM
–,–,2.4 nM,–,–,–,N[C@H](C(=O)Nc1cncc(F)c1CC[C@@H]1CN[C@H](COC(=O)NCC(F)(F)F)CO1)[C@@H](c1ccc(F)cc1)c1cc(F)cc(F)c1,130 nM

# Reference: ChEMBL document CHEMBL3826974, “Discovery of MK-8718, an HIV Protease Inhibitor Containing a Novel Morpholine Aspartate Binding Group” (ACS Med Chem Lett, 2016)
